Like-named read-outs stand apart in the source and are kept apart here.

In this experiment the test system is NRF2 (NQO1 activity as marker for NRF2 activation), BEAS-2B cells. Put plainly: BEAS-2B NQO1 MTT Assay. The format is cell-based. From the text:
NAD(P)H:quinone oxidoreductase 1 (NQO1), also called DT diaphorase, is a homodimeric FAD-containing enzyme that catalyzes obligatory NAD(P)H-dependent two-electron reductions of quinones and protects cells against the toxic and neoplastic effects of free radicals and reactive oxygen species arising from one-electron reductions. The transcription of NQO1 is finely regulated by NRF2, and thus NQO1 activity is a good marker for NRF2 activation. On day one, frozen BEAS-2B cells (ATCC) are thawed in a water bath, counted, and re-suspended at a concentration of 250,000 cells/mL. Fifty microliters of cells are plated in 384 well black clear-bottomed plates. Plates are incubated at 37° C., 5% CO2 overnight. On day two, plates are centrifuged and 50 nL of compound or controls are added to the cells. Plates are then incubated at 37° C., 5% CO2 for 48 hours. On day four, medium is aspirated from the plate and crude cell lysates are made by adding 13 uL of 1× Cell Signaling Technologies lysis buffer with 1 Complete, Mini, EDTA-free Protease Inhibitor Tablet (Roche) for each 10 mL of lysis buffer. After lysis plates are incubated for 20 minutes at room temperature. Two microliters of lysate are removed for use in Cell Titer Glo assay (Promega) and MTT cocktail is prepared (Prochaska et. al. 1998) for measurement of NQO1 activity. Fifty microliters of MTT cocktail is added to each well, plate is centrifuged, and analyzed on an Envision plate reader (Perkin Elmer) using Absorbance 570 nm label for 30 minutes. Product formation is measured kinetically and the EC50 of NQO1 specific activity induction is calculated by plotting the change in absorbance (Delta OD/min) versus the log of compound concentration followed by 3-parameter fitting.
EC50s<1 nM (+++++), EC50s 1 nM-10 nM (++++), EC50s 10 nM-100 nM (+++), EC50s 100 nM-1 uM (++), EC50s 1-10 uM (+), EC50s>10 uM (−), or were not determined (ND).

Where [1] appears, read: Homo sapiens, EC50 of NQO1 specific activity induction, 48 hours incubation, read-out: EC50.

Consider “(S)-3-(1,4-Dimethyl-1H-benzo[d][1,2,3]triazol-5-yl)-3-(3-(((R)-2-ethyl-2,3-dihydropyrido[3,44][1,4]oxazepin-4(5H)-yl)methyl)-4-methylphenyl)-2,2-dimethyl-N-(pyridin-3-yl)propanamide [Example 111]”, for which the EC50 (EC50 of NQO1 specific activity induction, 48 hours incubation, read-out: EC50) lay in the range of 100 to 1000 nM.

With `CC[C@@H]1CN(Cc2cc([C@H](CC(=O)NCCNC(C)=O)c3ccc4c(nnn4CC)c3C)ccc2C)S(=O)(=O)c2cccnc2O1` [Example 45, (S)—N-(2-Acetamidoethyl)-3-(3-(((R)-4-ethyl-1,1-dioxido-3,4-dihydro-2H-pyrido[2,3-b][1,4,5]oxathiazepin-2-yl)methyl)-4-methylphenyl)-3-(1-ethyl-4-methyl-1H-benzo[d][1,2,3]triazol-5-yl)propanamide], the half-maximal effective concentration (EC50) is 100 to 1000 nM under setting [1] and < 0.17 nM (Homo sapiens, in some determinations, read-out: EC50 values in some determinations).

For `CC[C@@H]1CN(Cc2cc([C@@H](c3ccc4c(nnn4CC)c3C)C(C)(C)NC(=O)CC#N)ccc2C)S(=O)(=O)c2ccccc2O1` [Example 144, 2-Cyano-N-((S)-1-(3-(((R)-4-ethyl-1,1-dioxido-3,4-dihydro-2H-benzo[b][1,4,5]oxathiazepin-2-yl)methyl)-4-methylphenyl)-1-(1-ethyl-4-methyl-1H-benzo[d][1,2,3]triazol-5-yl)-2-methylpropan-2-yl)acetamide], the EC50 under setting [1] is 10 to 100 nM. Consider `CC[C@@H]1CN(Cc2cc([C@H](CC(=O)NC3CC3)c3ccc4c(nnn4CC)c3C)ccc2C)S(=O)(=O)c2cccnc2O1` [Example 31, (S)—N-Cyclopropyl-3-(3-(((R)-4-ethyl-1,1-dioxido-3,4-dihydro-2H-pyrido[2,3-b][1,4,5]oxathiazepin-2-yl)methyl)-4-methylphenyl)-3-(1-ethyl-4-methyl-1H-benzo[d][1,2,3]triazol-5-yl)propanamide], for which the EC50 under setting [1] fell in the range of 100 to 1000 nM.

With `CC[C@@H]1CN(Cc2cc([C@H](CC(=O)NCCS(N)(=O)=O)c3ccc4c(nnn4CC)c3C)ccc2C)S(=O)(=O)c2cccnc2O1` [Example 30, (S)-3-(3-(((R)-4-Ethyl-1,1-dioxido-3,4-dihydro-2H-pyrido[2,3-b][1,4,5]oxathiazepin-2-yl)methyl)-4-methylphenyl)-3-(1-ethyl-4-methyl-1H-benzo[d][1,2,3]triazol-5-yl)-N-(2-sulfamoylethyl)propanamide], the EC50 under setting [1] lay in the range of 100 to 1000 nM.

For the compound `CCCn1nnc2c(C)c([C@H](c3ccc(C)c(CN4C[C@@H](CC)Oc5ccccc5S4(=O)=O)c3)C(C)(C)C(=O)Nc3cccnc3)ccc21` [Example 85, (S)-3-(3-(((R)-4-Ethyl-1,1-dioxido-3,4-dihydro-2H-benzo[b][1,4,5]oxathiazepin-2-yl)methyl)-4-methylphenyl)-2,2-dimethyl-3-(4-methyl-1-propyl-1H-benzo[d][1,2,3]triazol-5-yl)-N-(pyridin-3-yl)propanamide], the EC50 under setting [1] lay in the range of 10 to 100 nM. On to `CC[C@H]1Cc2ccccc2S(=O)(=O)N(Cc2cc([C@H](OCc3cn(CC)nn3)C(C)(C)C(=O)Nc3cccnc3)ccc2C)C1` [Example 57, (S)-3-(3-(((S)-4-Ethyl-1,1-dioxido-4,5-dihydrobenzo[f][1,2]thiazepin-2(3H)-yl)methyl)-4-methylphenyl)-3-((1-ethyl-1H-1,2,3-triazol-4-yl)methoxy)-2,2-dimethyl-N-(pyridin-3-yl)propanamide], for which the EC50 under setting [1] was 10 to 100 nM.

Take `CC[C@H]1Cc2ccc(C(F)(F)F)cc2S(=O)(=O)N(Cc2cc([C@@H](c3ccc4c(nnn4CC)c3C)[C@@H](C)C(=O)Nc3cccnc3)ccc2C)C1` [Example 180, (2R,3S)-3-(3-(((S)-4-ethyl-1,1-dioxido-8-(trifluoromethyl)-4,5-dihydrobenzo[f][1,2]thiazepin-2(3H)-yl)methyl)-4-methylphenyl)-3-(1-ethyl-4-methyl-1H-benzo[d][1,2,3]triazol-5-yl)-2-methyl-N-(pyridin-3-yl)propanamide]: under setting [1], the EC50 is 1 to 10 nM.

The EC50 is the concentration giving half of the maximal effect.

The record behind these values is patent US11078216B2, “Bisaryl amides as NRF2 activators” (GLAXOSMITHKLINE INTELLECTUAL PROPERTY DEVELOPMENT LIMITED, priority 2016, dated 2021).
